# Reference: the supplement of paper PMC10307832
# What was measured:
# Test in all cases: relative viability (nuclei count vs DMSO), 5 days (fraction); higher = more cells survive
# KIN001-266 + Lapatinib = compound: CCN1CCC(CC1)N2C=C(N=N2)CNC3=CC4=C(C(=CN=C4C(=C3)Cl)C#N)NC5=CC(=C(C=C5)F)Cl [KIN001-266] + CS(=O)(=O)CCNCc1ccc(-c2ccc3ncnc(Nc4ccc(OCc5cccc(F)c5)c(Cl)c4)c3c2)o1 [Lapatinib] (partner 2 µM)
# Outline: (§1)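 Each reported value is a median over duplicate plates. It expresses relative viability: treated-well nuclei count divided by vehicle-well nuclei count. Lung cancer cell lines in 1536-well plates were dosed by pin tool a day after seeding, alone with one drug or with a fixed anchor-drug dose plus five library-drug doses (not always all listed) in √10 steps, and nuclei were counted after 5 days.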
# KIN001-266 + Olaparib = compound: CCN1CCC(CC1)N2C=C(N=N2)CNC3=CC4=C(C(=CN=C4C(=C3)Cl)C#N)NC5=CC(=C(C=C5)F)Cl [KIN001-266] + O=C(c1cc(Cc2n[nH]c(=O)c3ccccc23)ccc1F)N1CCN(C(=O)C2CC2)CC1 [Olaparib] (partner 8 µM)
# Outline: as §1
# KIN001-266 + Phenformin = compound: CCN1CCC(CC1)N2C=C(N=N2)CNC3=CC4=C(C(=CN=C4C(=C3)Cl)C#N)NC5=CC(=C(C=C5)F)Cl [KIN001-266] + N=C(N)NC(=N)NCCc1ccccc1 [Phenformin] (partner 250 µM)
# Outline: as §1
# KIN001-266 + Trametinib = compound: CCN1CCC(CC1)N2C=C(N=N2)CNC3=CC4=C(C(=CN=C4C(=C3)Cl)C#N)NC5=CC(=C(C=C5)F)Cl [KIN001-266] + CC(=O)Nc1cccc(-n2c(=O)n(C3CC3)c(=O)c3c(Nc4ccc(I)cc4F)n(C)c(=O)c(C)c32)c1 [Trametinib] (partner 0.02 µM)
# Outline: as §1
Cell Line,relative viability (KIN001-266 + Lapatinib; first compound 0.08 µM),relative viability (KIN001-266 + Lapatinib; first compound 0.253 µM),relative viability (KIN001-266 + Lapatinib; first compound 0.8 µM),relative viability (KIN001-266 + Lapatinib; first compound 2.53 µM),relative viability (KIN001-266 + Lapatinib; first compound 8 µM),relative viability (KIN001-266 + Olaparib; first compound 0.08 µM),relative viability (KIN001-266 + Olaparib; first compound 0.253 µM),relative viability (KIN001-266 + Olaparib; first compound 0.8 µM),relative viability (KIN001-266 + Olaparib; first compound 2.53 µM),relative viability (KIN001-266 + Olaparib; first compound 8 µM),relative viability (KIN001-266 + Phenformin; first compound 0.08 µM),relative viability (KIN001-266 + Phenformin; first compound 0.253 µM),relative viability (KIN001-266 + Phenformin; first compound 0.8 µM),relative viability (KIN001-266 + Phenformin; first compound 2.53 µM),relative viability (KIN001-266 + Phenformin; first compound 8 µM),relative viability (KIN001-266 + Trametinib; first compound 0.08 µM),relative viability (KIN001-266 + Trametinib; first compound 0.253 µM),relative viability (KIN001-266 + Trametinib; first compound 0.8 µM),relative viability (KIN001-266 + Trametinib; first compound 2.53 µM),relative viability (KIN001-266 + Trametinib; first compound 8 µM)
A-427,1.07,1.08,1.04,0.921,1.01,0.723,0.789,0.726,0.615,0.639,0.357,0.307,0.289,0.275,0.247,0.823,0.73,0.711,0.618,0.658
H3255,0.346,0.219,0.283,0.251,0.294,0.583,0.55,0.565,0.517,0.455,0.356,0.373,0.353,0.353,0.345,0.545,0.581,0.643,0.659,0.484
HCC-44,0.964,1.03,0.959,0.985,1.02,0.994,0.959,0.944,0.884,0.993,0.229,0.185,0.197,0.26,0.3,1.13,1.06,1.07,1.07,1.16
NCI-H1734,1.1,1.32,1.03,0.982,1.02,0.719,0.6,0.505,0.551,0.425,0.416,0.387,0.405,0.357,0.321,0.671,0.715,0.606,0.672,0.608
NCI-H2228,1.06,1.04,0.883,0.834,0.882,0.692,0.735,0.682,0.727,0.496,0.392,0.282,0.322,0.296,0.281,0.564,0.448,0.457,0.357,0.402
COR-L23,0.797,0.894,0.998,0.904,0.983,0.372,0.367,0.345,0.293,0.294,0.439,0.452,0.452,0.455,0.368,0.634,0.667,0.651,0.512,0.486
NCI-H661,0.494,0.449,0.532,0.438,0.29,0.741,0.732,0.707,0.617,0.459,0.297,0.278,0.284,0.263,0.258,0.566,0.624,0.595,0.5,0.435
NCI-H1993,0.896,0.775,0.841,0.793,0.746,1.04,0.937,1.16,0.887,0.73,0.505,0.493,0.506,0.49,0.575,0.559,0.52,0.478,0.475,0.522
NCI-H1437,0.781,0.819,0.746,0.798,0.483,0.644,0.649,0.666,0.582,0.377,0.346,0.272,0.286,0.291,0.251,0.581,0.577,0.539,0.561,0.383
UMC-11,1.08,1.04,1.13,0.848,0.79,0.351,0.515,0.398,0.31,0.319,0.336,0.381,0.333,0.316,0.251,0.741,0.711,0.718,0.506,0.774
201T,1.05,0.981,0.992,1.07,1.05,0.822,0.852,0.809,0.855,0.816,0.449,0.45,0.386,0.457,0.434,0.74,0.724,0.686,0.708,0.754
NCI-H358,0.493,0.497,0.483,0.407,0.372,0.6,0.556,0.58,0.458,0.325,0.361,0.367,0.343,0.277,0.251,0.174,0.17,0.138,0.115,0.117
NCI-H1650,0.881,0.873,0.826,0.641,0.42,0.708,0.751,0.655,0.587,0.437,0.479,0.448,0.326,0.261,0.305,0.581,0.602,0.42,0.457,0.373
LOU-NH91,0.854,0.751,0.711,0.689,0.745,0.909,0.903,0.761,0.842,0.757,0.716,0.737,0.489,0.637,0.552,0.83,0.753,0.698,0.727,0.748
HOP-62,0.944,0.801,1.13,0.815,1.09,0.5,0.475,0.381,0.46,0.319,0.683,0.694,0.688,0.734,0.629,0.391,0.387,0.379,0.311,0.293
NCI-H1915,0.959,0.974,1.02,1.02,0.993,0.253,0.25,0.241,0.234,0.211,0.365,0.379,0.354,0.379,0.36,0.312,0.302,0.298,0.293,0.223
